In patent US6034085A, “Salt form of nefazodone for use in extended release formulations” (Bristol-Myers Squibb Co., priority 1998, dated 2000):
“Also recorded” adds a separate entry of the source. Where a name gives a salt, the structure may show the parent alone. Read-outs that look alike come from different tables or passages of the source.

What was measured:
[1] = Intrinsic dissolution of various nefazodone salts in water at 37° C.; assay type: physicochemical; settings: for Intrinsic Dissolution Rate: n = 2; for Final pH: pH of the aqueous medium after dissolution had occurred
Experimental: Table 1 sets out intrinsic dissolution rates for various salts of nefazodone in water at 37° C. The final pH value is the pH of the aqueous medium after dissolution had occurred. […] Note, however, that the tosylate salt's dissolution rate is also slow even though the media is acidic in nature.
The intrinsic dissolution experiments were performed with 75 mL water as the dissolution medium. The details of these dissolution experiments are summarized below:
Container: Double-walled beaker, 100 mL capacity, round bottom.
Volume of sample withdrawn per interval: 1 mL.
Temperature of the solution in the beaker was maintained by means of a circulating waterbath. The medium was stirred with a USP II paddle using 100 rpm stirring rate (paddle depth=1 inch below the surface of the medium). Samples were withdrawn through a 0.45 μm syringe filter and were analyzed without any further dilution or treatment by HPLC (Method 1).

[2] = Drug release from tablets in 0.5M THAM buffer (FIG. 4); assay type: physicochemical; settings: 37° C.
Experimental: (§1) The curves are plotted as percent nefazodone released over time in hours.
(§2) Remaining dissolution experiments were made with the nefazodone salts formulated into tablets as described more fully infra. Essentially, the tablets were comprised of a nefazodone salt, hydroxypropylcellulose, lactose and magnesium stearate.
(§3) Release Profiles from the Tablet Formulation
(§4) The preparation and characterization of tablets of salts of nefazodone was performed as described below:
(§5) The nefazodone salt, hydroxypropyl cellulose EF and lactose were mixed for 10-15 minutes. Magnesium stearate was added to this mixture, mixing it for five more minutes. Tablets were compressed using a Manesty machine (Model-Manesty B3B). The tablet hardness was approximately 7 SCU.
The details of conditions for the dissolution experiments are as follows:
(§6) […]: 900 mL.
(§7) Sample volume withdrawn at each interval: 0.7 mL.
(§8) Samples were filtered during withdrawal and chromatographed without further dilution or treatment. Samples were analyzed by Waters HPLC system. The HPLC conditions are listed in Method 2 below.

[3] = Drug release from tablets in simulated gastric fluid pH 1.2 (FIG. 2); assay type: physicochemical; settings: pH 1.2, 37° C.
Experimental: as §1, §2, §3, §4, §5
(§9) Dissolution studies were performed with a USP II apparatus in simulated gastric fluid (USP, pH 1.2), simulated intestinal fluid (USP, pH 7.5) and 0.5 M THAM (pH 7.7). The details of conditions for the dissolution experiments are as follows:
as §6, §7, §8

[4] = Dissolution of powdered nefazodone salts in 0.125M THAM buffer (FIG. 1); assay type: physicochemical; settings: powder, pH 7.5, 37° C.
Experimental: The curves are plotted as cumulative amounts of nefazodone versus time in minutes.
To assess solubility in non-acidic media, dissolution rates were determined for selected nefazodone salts in THAM buffer (0.125M, pH 7.5) made by dissolving tri(hydroxymethyl)aminomethane in water and adjusting the pH with conc. hydrochloride acid.
Intrinisic Dissolution Experiments in THAM
THAM buffer was prepared by dissolving tri(hydroxymethyl)aminomethane in water and adjusting the pH with concentrated hydrochloric acid. Dissolution of salts of nefazodone in powder form was studied in this medium.
The experiments were conducted in 0.125 M THAM (pH 7.7) at 37° C. using the USP II dissolution apparatus. Nefazodone […] in powder form (about 75-80 mg) were added to 900 mL dissolution medium stirred at 50 rpm and samples were withdrawn at time points up to 2 hours. The USP official method recommends paddles to be 1 inch from the bottom. In this experiment, paddles were 3/4 inch from the bottom. The paddle depth was altered to facilitate suspension of the powder during experiments. Samples were analyzed using HPLC assay.

[5] = Drug release from tablets in simulated intestinal fluid pH 7.5 (FIG. 3); assay type: physicochemical; settings: pH 7.5, 37° C.
Experimental: as §1, §2, §3, §4, §5, §9, §6, §7, §8

[6] = Aqueous solubility of nefazodone as a function of pH; assay type: physicochemical; settings: gastrointestinal tract / pH range
[7] = Stability under pharmaceutical processing and storage; assay type: physicochemical; settings: pharmaceutical processing/handling and storage; listed as mesylate salt
[8] = extended release formulations, cited from earlier work
[9] = cited from earlier work
[10] = cited from earlier work; remark: listed apart in the source

Structure (SMILES) | solubility / dissolution rate in water [1] | Intrinsic Dissolution Rate [1] [mg/min/cm 2] | Final pH [1] | further results
CCc1nn(CCCN2CCN(c3cccc(Cl)c3)CC2)c(=O)n1CCOc1ccccc1 [Succinate] | Low solubilities | 0.16 | 5.0 | 
CCc1nn(CCCN2CCN(c3cccc(Cl)c3)CC2)c(=O)n1CCOc1ccccc1 [DL-Malate] |  | 0.98 | 4.3 | 
CCc1nn(CCCN2CCN(c3cccc(Cl)c3)CC2)c(=O)n1CCOc1ccccc1 [Acetate] | Low solubilities | 0.03 | 5.4 | 
CCc1nn(CCCN2CCN(c3cccc(Cl)c3)CC2)c(=O)n1CCOc1ccccc1 [Mesylate] |  | 2.7 | 4.0 | drug release from tablets [2]: outperforms the others; drug release from tablets [3]: good but not excessive dissolution; drug release from tablets ([3]; listed as mesylate salt): more modest release; concentration of drug dissolved compared to the hydrochloride salt [4]: in the higher grouping, the mesylate is not the best of those shown; drug release from tablets [5]: best of class dissolution; drug release from tablets ([5]; listed as mesylate salt): performs better than the other salts; solubility throughout the gastrointestinal tract [6]: exhibit solubility throughout the gastrointestinal tract; stability [7]: stable solid; also recorded: stable under conditions of pharmaceutical processing and storage
CCc1nn(CCCN2CCN(c3cccc(Cl)c3)CC2)c(=O)n1CCOc1ccccc1 [L-Malate] |  | 1.36 | 4.2 | 
CCc1nn(CCCN2CCN(c3cccc(Cl)c3)CC2)c(=O)n1CCOc1ccccc1 [D-Malate] |  | 1.15 | 4.2 | 
CCc1nn(CCCN2CCN(c3cccc(Cl)c3)CC2)c(=O)n1CCOc1ccccc1 [Hydrochloride, reference compound] |  | 0.93 | 4.4 | drug release from tablets ([3]; listed as hydrochloride salt): good solubility; bioavailability [8]: low observed bioavailability; solubility in the intestinal tract ([9]; intestinal tract, pH ranges from about 5-7): low solubility
CCc1nn(CCCN2CCN(c3cccc(Cl)c3)CC2)c(=O)n1CCOc1ccccc1 [D-Tartrate] |  | 1.13 | 3.7 | 
CCc1nn(CCCN2CCN(c3cccc(Cl)c3)CC2)c(=O)n1CCOc1ccccc1 [DL-Tartrate] |  | 1.2 | 3.7 | 
CCc1nn(CCCN2CCN(c3cccc(Cl)c3)CC2)c(=O)n1CCOc1ccccc1 [L-Tartrate] |  | 0.97 | 3.8 | 
CCc1nn(CCCN2CCN(c3cccc(Cl)c3)CC2)c(=O)n1CCOc1ccccc1 [Nefazodone base] | Low solubilities | 0.002 | 7.2 | pka ([10]; first of two pka values): about 6.4; pka ([10]; second of two pka values): ~9.5; nefazodone release in the human intestinal tract ([8]; pH approaches neutrality): inhibited; aqueous solubility ([9]; pH values greater than 6): low aqueous solubility
CCc1nn(CCCN2CCN(c3cccc(Cl)c3)CC2)c(=O)n1CCOc1ccccc1 [Tosylate] | slow | 0.1 | 4.4 | 
CCc1nn(CCCN2CCN(c3cccc(Cl)c3)CC2)c(=O)n1CCOc1ccccc1 [Maleate] |  | 0.30 | 4.8 | 
